Data taken from patent publication US8772286B2, “MK2 inhibitors” (Merck Sharp & Dohme B.V., priority 2009, dated 2014).
In brackets after ≈: the same amount, converted by molar mass. Read-outs that look alike come from different tables or passages of the source.

Key:
MK2 enzyme = target: T1, MK2 enzyme (Homo sapiens, UniProt P49137); test: MK2 enzyme activity, IMAP fluorescence polarization assay; assay type: biochemical
T1 construct: MK2 enzyme (active enzyme (peptide 46-end (Millipore))); purchased Millipore
T1 sequence (P49137 46-400 limits assumed): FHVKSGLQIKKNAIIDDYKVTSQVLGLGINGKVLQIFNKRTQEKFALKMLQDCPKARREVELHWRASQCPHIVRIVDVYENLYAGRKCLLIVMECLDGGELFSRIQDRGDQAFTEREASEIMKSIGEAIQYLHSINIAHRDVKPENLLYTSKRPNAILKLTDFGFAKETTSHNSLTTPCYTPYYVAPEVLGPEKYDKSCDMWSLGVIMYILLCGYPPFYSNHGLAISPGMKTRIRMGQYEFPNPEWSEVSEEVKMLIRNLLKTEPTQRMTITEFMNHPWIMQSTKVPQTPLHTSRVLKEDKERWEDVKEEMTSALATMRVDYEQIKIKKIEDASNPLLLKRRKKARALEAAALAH
Text: In another assay the MK2 kinase activity can be determined by using an IMAP assay (Immobilized Metal Assay for Phosphochemicals—based coupled assay). IMAP is a homogeneous fluorescence polarization (FP) assay based on affinity capture of phosphorylated peptide substrates. IMAP uses fluorescein-labeled peptide substrates that, upon phosphorylation by a protein kinase, bind to so called IMAP nanoparticles, which are derivatized with trivalent metal complexes. […] In such an assay, MK2 phosphorylates a fluorescein-labeled peptide substrate (see example 14).
MK2 enzyme activity is measured using the IMAP (immobilized metal ion affinity-based fluorescence polarization) assay as outlined below.
The enzyme is diluted to 100 U/mL the day before use in KR buffer (10 mM Tris-HCl, 10 mM MgCl2, 0.01% Tween-20, 0.05% NaN3, 2 mM DTT, pH 7.2) and stored overnight at −20° C.
The dilutions in DMSO are then diluted 50-fold in KR-buffer of which 5 μl is used in the assay, leading to a final compound concentration range in the assay from 10 μM to 0.316 nM.
After 60 min incubation at room temperature in the dark the FP signal is read. Fluorescence at 535 nm is measured using parallel and perpendicular filters to determine differences in rotation due to binding of the phosphorylated substrate peptide to the beads. Values are calculated as percentage of the difference in readout (ΔmPi) of the controls with and without ATP. EC50 values are determined by curve fitting of the experimental results using Activity Base.

[1] = Solubility determination of MK2 inhibitors (kinetic aqueous solubility, UPLC); assay type: physicochemical; conditions: aqueous buffer (system solution from pION inc.), 22 °C, pH 7.4, aqueous buffer, kinetic from dmso stock
Experimental: The solubility can be determined using the Automated Kinetic Aqueous Solubility (AKASol) method, which is an HPLC-UV based method. The method is derived from the classical saturated shake-flask solubility method which has been adapted to the 96-well microtitre plate format, allowing the use of DMSO stock solutions. The solubility is determined by measuring the amount of compound in a saturated aqueous solution, quantified by an external calibration curve of the compound dissolved in DMSO. The solubility (mg/L) is measured at pH 7.4, at room temperature and the final concentration of DMSO in the sample solution is 1%.
The samples were prepared from 10 mM DMSO stock solutions. For each compound under investigation, a volume (9 μL) of the DMSO stock solution is transferred from the DMSO stock solution into 891 μL of buffer solution (system solution from pION inc.) in a 96 deep well plate, which equates to approximately 1% DMSO, using the Packard Multiprobe II robot liquid handling system. The pH of the buffer is manually adjusted at pH 7.4 by adding NaOH. This procedure is done in duplicate for each sample. After shaking for 24 h on a vortex mixer (Heidolph, Titramax 101) at 450 rpm and at room temperature (21-23° C.), 300 uL of the incubated sample is transferred from the deep well plate to a filter plate (PVDF, 0.45 um) on a vacuum manifold. To the filtrate (150 uL) 1-propanol (50 uL) is added to suppress precipitation and this solution is then analysed by UPLC. The solubility is determined using the calibration line previously prepared.
Preparation of the Standards and Built up of a Calibration Line
The calibration line is built with different concentrations of the test compound (standards), prepared from the same 10 mM DMSO stock solution. A volume (7 uL) from the same DMSO stock solution was diluted with DMSO (273 uL) leading to a solution with concentration of 0.25 mM. From this solution, three different injection volumes (0.2, 1, 1.8 uL) were injected on UPLC. The respective peak areas are plotted against amount of compound to build up the calibration line. The calibration line is used to determine the amount of dissolved compound in each sample, selecting the injection that gave peak areas closest to the peak area range of the calibration standards.

[2] = MK2 IMAP assay, 1 μM ATP, 30 min pre-incubation, 2 h room temperature, read-out: pEC50 value (converted)
[3] = pH 7.4, room temperature, about 1% DMSO, 24 h shaking, read-out: solubility
[4] = Table 1, compound of Formula (I) with spiro ring, MK2 IMAP assay, read-out: pEC50, Formula (I) (converted)
[5] = Table 1, compound of Formula (I) with spiro ring, pH 7.4, read-out: Solubility pH 7.4 (mg/L), Formula (I)
[6] = Table 1, comparison compound of Formula (XV) without spiro ring, pH 7.4, read-out: Solubility pH 7.4 (mg/L), Formula (XV)

SMILES | EC50 (MK2 enzyme; [2]) [µM] | solubility at 24 h [1, 3] [mg/L] | further results
O=C1NCC2(CCNC2)c2[nH]c(-c3ccnc(-c4cccc(F)c4)n3)cc21 (stereo not shown) [17_4 Formula (I)] |  |  | EC50 (MK2 enzyme; Table 2, compound of Formula (I) with amine-containing spiro ring, MK2 IMAP assay, read-out: pEC50, Formula (I) (converted)): 0.0126 µM; solubility at 24 h ([1]; Table 2, compound of Formula (I) with amine-containing spiro ring, pH 7.4, read-out: Solubility pH 7.4 (mg/L), Formula (I)): 48 mg/L
CC(=O)c1cccc(-c2nccc(-c3cc4c([nH]3)C3(CCNCC3)CNC4=O)n2)c1 [1—30, 2′-(2-(3-acetylphenyl)pyrimidin-4-yl)-5′,6′-dihydrospiro[piperidine-4,7′-pyrrolo[3,2-c]pyridin]-4′(1′H)-one] | 0.00316 to 0.0316 | ≥ 50 | 
NCCN1CCC2(CC1)CNC(=O)c1cc(-c3ccnc(-c4cc5ccccc5o4)n3)[nH]c12 [Example 2—3, 1-(2-aminoethyl)-2′-(2-(benzofuran-2-yl)pyrimidin-4-yl)-5′,6′-dihydrospiro[piperidine-4,7′-pyrrolo[3,2-c]pyridin]-4′(1′H)-one] | 0.0316 to 0.316 | ≥ 50 | 
O=C1NCC2(CCNCC2)c2[nH]c(-c3ccnc(-c4ccc5c(c4)OCCCO5)n3)cc21 [1—11, 2′-(2-(3,4-dihydro-2H-benzo[b][1,4]dioxepin-7-yl)pyrimidin-4-yl)-5′,6′-dihydrospiro[piperidine-4,7′-pyrrolo[3,2-c]pyridin]-4′(1′H)-one] | 0.00316 to 0.0316 | ≥ 50 | 
O=C1NCC2(CCNCC2)c2[nH]c(-c3ccnc(-c4cc5ccccc5o4)n3)cc21 [16_6 Formula (I)] |  |  | EC50 (MK2 enzyme; [4]): 0.00631 µM; solubility at 24 h [1, 5]: 84 mg/L
O=C1NCCc2[nH]c(-c3ccnc(-c4ccc5c(c4)OCO5)n3)cc21 [16_5 Formula (XV)] |  |  | EC50 (MK2 enzyme; Table 1, comparison compound of Formula (XV) without spiro ring, MK2 IMAP assay, read-out: pEC50, Formula (XV) (converted)): 0.126 µM; solubility at 24 h [1, 6]: 5 mg/L
O=C1NCC2(CCNCC2)c2[nH]c(-c3nc(-c4cnc5ccccc5c4)ncc3F)cc21 [4—3, 2′-(5-fluoro-2-(quinolin-3-yl)pyrimidin-4-yl)-5′,6′-dihydrospiro[piperidine-4,7′-pyrrolo[3,2-c]pyridin]-4′(1′H)-one] | ≤ 0.00316 | ≥ 50 | 
O=C1NCC2(CCNC2)c2[nH]c(-c3ccnc(-c4cnc5ccccc5c4)n3)cc21 (stereo not shown) [Example 6—1, 2′-(2-(quinolin-3-yl)pyrimidin-4-yl)-5′,6′-dihydrospiro[pyrrolidine-3,7′-pyrrolo[3,2-c]pyridin]-4′(1′H)-one] | ≤ 0.00316 | 20 to 50 (≈ 50.4 to 126 µM) | 
O=C1NCC2(CCNCC2)c2[nH]c(-c3ccnc(-c4cccc(OC(F)(F)F)c4)n3)cc21 [1—16, 2′-(2-(3-(trifluoromethoxy)phenyl)pyrimidin-4-yl)-5′,6′-dihydrospiro[piperidine-4,7′-pyrrolo[3,2-c]pyridin]-4′(1′H)-one] | 0.00316 to 0.0316 | ≥ 50 | 
Cc1ccc(C(=O)Nc2cc(-c3cc4c([nH]3)C3(CCNCC3)CNC4=O)ccn2)cc1C [12—2, 3,4-dimethyl-N-(4-(4′-oxo-1′,4′,5′,6′-tetrahydrospiro[piperidine-4,7′-pyrrolo[3,2-c]pyridine]-2′-yl)pyridin-2-yl)benzamide] | ≤ 0.00316 | ≥ 50 | 
O=C1NCC2(CCNCC2)c2[nH]c(-c3ccnc(-c4ccccc4F)n3)cc21 [16_4 Formula (I)] |  |  | EC50 (MK2 enzyme; [4]): 0.0316 µM; solubility at 24 h [1, 5]: 36 mg/L
O=C1NCC2(CCNCC2)c2[nH]c(-c3ccnc(-c4cc5ccccc5o4)c3)cc21 [Example 8—1, 2′-(2-(benzofuran-2-yl)pyridin-4-yl)-5′,6′-dihydrospiro[piperidine-4,7′-pyrrolo[3,2-c]pyridin]-4′(1′H)-one] | 0.00316 to 0.0316 | ≥ 50 | 
O=C1NCC2(CCNCC2)c2[nH]c(-c3ccnc(-c4cc(Cl)cc(Cl)c4)n3)cc21 [1—25, 2′-(2-(3,5-dichlorophenyl)pyrimidin-4-yl)-5′,6′-dihydrospiro[piperidine-4,7′-pyrrolo[3,2-c]pyridin]-4′(1′H)-one] | 0.00316 to 0.0316 | ≥ 50 | 
O=C1NCC2(CCNCC2)c2[nH]c(-c3ccnc(-c4ccc(C(F)(F)F)cc4)n3)cc21 [1—17, 2′-(2-(4-(trifluoromethyl)phenyl)pyrimidin-4-yl)-5′,6′-dihydrospiro[piperidine-4,7′-pyrrolo[3,2-c]pyridin]-4′(1′H)-one] | 0.00316 to 0.0316 | ≥ 50 | 
O=C1NCC2(CNCCO2)c2[nH]c(-c3ccnc(-c4cc5ccccc5o4)n3)cc21 (stereo not shown) [7—1, 2′-(2-(benzofuran-2-yl)pyrimidin-4-yl)-5′,6′-dihydrospiro[morpholine-2,7′-pyrrolo[3,2-c]pyridin]-4′(1′H)-one] | 0.0316 to 0.316 | ≥ 50 | 
O=C1NCC2(CCNCC2)c2[nH]c(-c3ccnc(-c4ccccc4F)n3)cc21 [1—4, 2′-(2-(2-fluorophenyl)pyrimidin-4-yl)-5′,6′-dihydrospiro[piperidine-4,7′-pyrrolo[3,2-c]pyridin]-4′(1′H)-one] | 0.00316 to 0.0316 | 20 to 50 (≈ 53 to 132 µM) | 
NC(=O)c1cccc(-c2nccc(-c3cc4c([nH]3)C3(CCNCC3)CNC4=O)n2)c1 [1—29, 3-(4-(4′-oxo-1′,4′,5′,6′-tetrahydrospiro[piperidine-4,7′-pyrrolo[3,2-c]pyridine]-2′-yl)pyrimidin-2-yl)benzamide] | 0.00316 to 0.0316 | ≥ 50 | 
O=C1NCCc2[nH]c(-c3ccnc(-c4cccc(F)c4)n3)cc21 [16_3 Formula (XV)] |  |  | EC50 (MK2 enzyme): 0.501 µM; solubility at 24 h [1, 6]: 32 mg/L
O=C1NCCc2[nH]c(-c3ccnc(-c4cc5ccccc5o4)c3)cc21 [16_7 Formula (XV)] |  |  | EC50 (MK2 enzyme): 0.126 µM; solubility at 24 h [1, 6]: 2 mg/L
O=C1NCC2(CCNC2)c2[nH]c(-c3ccnc(-c4cc5ccccc5o4)c3)cc21 (stereo not shown) [6—5, 2′-(2-(benzofuran-2-yl)pyridin-4-yl)-5′,6′-dihydrospiro[pyrrolidine-3,7′-pyrrolo[3,2-c]pyridin]-4′(1′H)-one] | 0.00316 to 0.0316 | ≥ 50 | 
O=C1NCC2(CCNCC2)c2[nH]c(-c3ccnc(-c4ccc(Oc5ccccc5)cc4)n3)cc21 [1—15, 2′-(2-(4-phenoxyphenyl)pyrimidin-4-yl)-5′,6′-dihydrospiro[piperidine-4,7′-pyrrolo[3,2-c]pyridin]-4′(1′H)-one] | 0.00316 to 0.0316 | ≥ 50 | 
O=C1NCC2(CCCNC2)c2[nH]c(-c3ccnc(-c4cc5ccccc5o4)n3)cc21 (stereo not shown) [Example 5—1, 2′-(2-(benzofuran-2-yl)pyrimidin-4-yl)-5′,6′-dihydrospiro[piperidine-3,7′-pyrrolo[3,2-c]pyridin]-4′(1′H)-one] | 0.00316 to 0.0316 | ≥ 50 | 
O=C1NCC2(CCNCC2)c2[nH]c(-c3ccnc(-c4ccc5c(c4)OCO5)c3)cc21 [8—3, 2′-(2-(benzo[d][1,3]dioxol-5-yl)pyridin-4-yl)-5′,6′-dihydrospiro[piperidine-4,7′-pyrrolo[3,2-c]pyridin]-4′(1′H)-one] | ≤ 0.00316 | ≥ 50 | 
